Source: paper PMC3600310, “Phage Display Screening for Tumor Necrosis Factor-α-Binding Peptides: Detection of Inflammation in a Mouse Model of Hepatitis” (International Journal of Peptides, 2013)

Key:
TNF-α = TNF-α detection by biotinylated 2C and 2L peptides in liver histological sections; design: species or system mouse; details: biotinylated peptide 20 μM overnight, ABC complex/DAB, ex vivo
Description: Adult mice (n = 6) received a single i.p. injection of 20 mg/Kg of ConA [21], a lymphocyte T activator producing inflammation in mice liver.
Mice were sacrificed 2 hours after intravenous injection of ConA, and their livers were fixed for 24 h in 4% paraformaldehyde. After fixation, the liver was dehydrated by several alcohol and butanol soakings and the organ was subsequently embedded in paraffin according to standard procedures. Sections of 4-micrometer thickness were cut for histological tests.
TNF-α detection by the phage display-selected 2C and 2L peptides was carried out with the same protocol as for anti-TNF-α polyclonal antibody (see Section 2.4.2). Briefly, liver sections were incubated overnight with the biotinylated peptides (20 μM). Reactive sites were detected with the ABC complex and DAB staining.

[1] = ELISA interaction of biotinylated peptides with PFBB coated plate (no target); assay type: binding; details: free biotinylated peptide; plate coated with protein-free blocking buffer only; Kd* values could not be estimated
Description: The affinity of the selected peptides was evaluated by ELISA as for the phage clones (see Section 2.1.3). The target was immobilized overnight on a 96-well plate at 4°C before a 2-hour incubation with a protein-free blocking buffer solution (PFBB, Pierce, Aalst, Belgium) and then with a range of peptide dilutions: 10^‒3 M to 10^‒6 M. The target-bound biotinylated peptides were detected using ABC (Avidin Biotin Complex) and ABTS solutions as described above. The dissociation constant was estimated from the inflection point of the curve.

human TNF-α [2] = assay: ELISA competition of phage clones with an anti-TNF-α antibody; assay type: binding; details: for IC50: antibody concentration that inhibits by 50% the phage-TNF-α interaction, antibody 1.3 × 10^−9 to 6.66 × 10^−7 M pre-incubated 30 min, then phage at Kd* concentration 1 h, high IC50 = strong phage binding, read-out: IC50 of the anti-TNF-α antibody against the phage clone; for IC50 Ab anti-TNF-α/Kd clone ratio: phage clones, IC50 of the anti-TNF-α antibody divided by Kd* of the clone
Description: (b) Competition Experiments with an Anti-TNF-α Antibody. Competition experiments were performed in the same manner as the K d* experiments except that clones were set in competition with an anti-TNF-α antibody (R&D Systems Inc., Abington, UK) in dilutions ranging from 1.3 × 10^−9 to 6.66 × 10^−7 M in a PBS solution. Plates were first incubated for 30 min with 50 μL/well of antibody dilutions before a one-hour incubation with 50 μL of phage solutions at the K d* concentration. The IC50 of the anti-TNF-α antibody is the antibody concentration required to inhibit by 50% the interaction between phages and TNF-α.
The objective of this test is to set up a competition between every phage clone and another ligand of the target to calculate an inhibition constant value (IC50).

human TNF-α [3] = assay: ELISA estimation of apparent dissociation constant (Kd*) between phage clones and TNF-α; assay type: binding; details: phage clones; ELISA Kd* on BSA divided by Kd* on TNF-α
Description: (a) Estimation of the Apparent Dissociation Constant (K d*) between the Phage Clones and TNF-α. The K d* of phage clones against their target was assessed by the ELISA (enzyme-linked immunosorbent assay) method, using a range of phage dilutions incubated with the specific target.
ELISA plates were treated overnight with the target solution (human TNF-α, 0.01 mg/mL, at 4°C). The next day, the target solution was replaced by the blocking solution as described above. Plates were then incubated for 2 h at 37°C with serial phage dilutions (6.5 × 10^−11 – 3.3 × 10^−8 M) prepared in PBS containing 0.3% Tween 20. After rinsing the plate 6 times with the same buffer, phages were detected with a peroxidase-conjugated anti-M13 monoclonal antibody (Amersham Pharmacia Biotech Benelux, Roosendaal, The Netherlands) diluted 1 : 5000 in the blocking buffer. The peroxidase detection was performed using 2,2′-azino-bis[3-ethylbenztiazoline-6-sulfonic acid, diammonium salt] (ABTS, Sigma-Aldrich; 22 mg in 100 mL of 50 mM sodium citrate, pH 4.0) supplemented with 0.05% H2O2. After 30–60 min of incubation at room temperature, the OD405 values were measured on a microplate reader (Stat-Fax-2100, Awareness Technology Inc., Fisher Bioblock Scientific, Tournai, Belgium) for K d* evaluation.

(C-)PATLTSL(-C) (disulfide) [Clone 2C, biotinylated cyclic form of the PATLTSL peptide (peptide 2)]
Staining of healthy liver sections (TNF-α): did not show such a staining
Interaction with the PFBB coated plate [1]: only a weak interaction

C-GSKTQAP-C (disulfide) [Clone C2-R3, phage clone 2 from biopanning round 3 displaying cyclic heptapeptide C-GSKTQAP-C]
IC50 (human TNF-α [2]): 112 nM
IC50 Ab anti-TNF-α/Kd clone ratio (human TNF-α [2]): 1087
Kd BSA/Kd TNF-α ratio (human TNF-α [3]): 6 × 10^6

C-NNPLKSL-C (disulfide) [Clone C47-R4, phage clone 47 from round 4 displaying cyclic heptapeptide C-NNPLKSL-C]
Kd BSA/Kd TNF-α ratio (human TNF-α [3]): 0.02

C-PATLTSL-C (disulfide) [Clone C30-R3, phage clone 30 from round 3 displaying cyclic heptapeptide C-PATLTSL-C]
IC50 (human TNF-α [2]): 127 nM
IC50 Ab anti-TNF-α/Kd clone ratio (human TNF-α [2]): 6195
Kd BSA/Kd TNF-α ratio (human TNF-α [3]): 4.2 × 10^6

PATLTSL [Clone 2L, biotinylated linear form of the PATLTSL peptide (peptide 2)]
Staining of liver sections of ConA-treated mice (TNF-α; C57BL/6 mice, ConA 20 mg/Kg, sacrificed 2 hours after injection): did not yield such a result
Interaction with the PFBB coated plate [1]: only a weak interaction
